Results on 17 compounds are retold here after US10570129B2 (Zoetis Services LLC, priority 2015, dated 2020).

The subject of one experiment is Haemonchus contortus L3. In words: microbe, parasite or virus in culture. In kind it is cell-based. The conditions noted are these: for minimal effective concentration: Haemonchus contortus, 96 h, read-out: HcL3 Minimal Effective Concentration (MEC).
A further experiment deals with D. immitis microfilariae. The experiment in a line: Dirofilaria immitis, microfilariae (DiMF) in vitro motility assay. The format is cell-based. The conditions noted are these: for minimal effective concentration: Dirofilaria immitis, 72 h, read-out: DiMF minimally effective dose (MEC).

Take `N#Cc1ccc2c3c(n(C(=O)NCc4ccnc(Cl)c4)c2c1)CCN(C/C=C/c1ccncc1)C3` [Example 37, (E)-N-((2-chloropyridin-4-yl)methyl)-7-cyano-2-(3-(pyridin-4-yl)allyl)-1,2,3,4-tetrahydro-5H-pyrido[4,3-b]indole-5-carboxamide]: the minimal effective concentration in the experiment on Haemonchus contortus L3 is more than 100 µM; in the experiment with D. immitis microfilariae, 33 µM.

As to `O=C(NCc1cnc(Cl)s1)n1c2c(c3cc(Cl)c(Cl)cc31)CN(C/C=C/c1ccc(Cl)cc1)CC2` [Example 294, (E)-7,8-dichloro-2-(3-(4-chlorophenyl)allyl)-N-((2-chlorothiazol-5-yl)methyl)-1,2,3,4-tetrahydro-5H-pyrido[4,3-b]indole-5-carboxamide], the minimal effective concentration is more than 100 µM in the experiment on Haemonchus contortus L3 and 10 µM with D. immitis microfilariae.

Turning to “(E)-7,8-dichloro-N-((2-fluoropyridin-4-yl)methyl)-2-(3-(5-(trifluoromethyl)pyridin-2-yl)allyl)-1,2,3,4-tetrahydro-5H-pyrido[4,3-b]indole-5-carboxamide [Example 287]”, in the experiment with Haemonchus contortus L3, the “HcL3 Minimal Effective Concentration (MEC)” value amounted to 0.2 µM. In addition, in the experiment on D. immitis microfilariae (decrease in microfilariae motility by subjective visual assessment, observed at 72 hours), the “DiMF minimally effective dose (MEC)” value was 3.3 µM.

As for `N#Cc1ccc2c3c(n(C(=O)NCc4ccnc(F)c4)c2c1)CCN(C/C=C/c1ccc(Cl)c(F)c1F)C3` [Example 53, (E)-2-(3-(4-chloro-2,3-difluorophenyl)allyl)-7-cyano-N-((2-fluoropyridin-4-yl)methyl)-1,2,3,4-tetrahydro-5H-pyrido[4,3-b]indole-5-carboxamide], the minimal effective concentration with Haemonchus contortus L3 was 5.7 µM; in the experiment on D. immitis microfilariae, more than 100 µM.

Turning to `Cc1cc2c3c(n(C(=O)NCc4ccnc(Cl)c4)c2cc1C#N)CCN(C/C=C/c1ccc(Cl)cc1)C3` [Example 176, (E)-2-(3-(4-chlorophenyl)allyl)-N-((2-chloropyridin-4-yl)methyl)-7-cyano-8-methyl-1,2,3,4-tetrahydro-5H-pyrido[4,3-b]indole-5-carboxamide], the minimal effective concentration in the experiment on Haemonchus contortus L3 stood at 0.2 µM; in the experiment on D. immitis microfilariae, 3.3 µM.

As to `O=C(NCc1ccnc(Cl)c1)n1c2c(c3c(Cl)cccc31)CN(C/C=C/c1ccc(F)cc1)CC2` [Example 218, (E)-9-chloro-N-((2-chloropyridin-4-yl)methyl)-2-(3-(4-fluorophenyl)allyl)-1,2,3,4-tetrahydro-5H-pyrido[4,3-b]indole-5-carboxamide], the minimal effective concentration is 1 µM in the experiment with Haemonchus contortus L3 and 10 µM in the experiment with D. immitis microfilariae.

In the case of `N#Cc1ccc2c3c(n(C(=O)NCc4ccnc(Cl)c4)c2c1)CCN(C/C=C/c1ccc(Br)c(F)c1F)C3` [Example 14, (E)-2-(3-(4-bromo-2,3-difluorophenyl)allyl)-N-((2-chloropyridin-4-yl)methyl)-7-cyano-1,2,3,4-tetrahydro-5H-pyrido[4,3-b]indole-5-carboxamide], the values for the minimal effective concentration in the experiment with Haemonchus contortus L3 and with D. immitis microfilariae were 0.5 µM and more than 100 µM, respectively.

With `O=C(NCc1ccnc(Cl)c1)n1c2c(c3ccc(C(F)(F)F)cc31)CN(C/C=C/c1ccc(C(F)(F)F)cc1)CC2` [Example 425, (E)-N-((2-chloropyridin-4-yl)methyl)-7-(trifluoromethyl)-2-(3-(4-(trifluoro-methyl)phenyl)allyl)-1,2,3,4-tetrahydro-5H-pyrido[4,3-b]indole-5-carboxamide], the minimal effective concentration with Haemonchus contortus L3 is more than 100 µM; in the experiment with D. immitis microfilariae, 15.8 µM.

Regarding `O=C(NCc1ccnc(Cl)c1)n1c2c(c3ccc(OC(F)(F)F)cc31)CN(C/C=C/c1ccc(F)c(Cl)c1)CC2` [Example 348, (E)-2-(3-(3-chloro-4-fluorophenyl)allyl)-N-((2-chloropyridin-4-yl)methyl)-7-(trifluoromethoxy)-1,2,3,4-tetrahydro-5H-pyrido[4,3-b]indole-5-carboxamide], the minimal effective concentration amounted to 1 µM with Haemonchus contortus L3 and 24.5 µM with D. immitis microfilariae.

For the compound `O=C(NCc1ccnc(Cl)c1)n1c2c(c3c(C(F)(F)F)cccc31)CN(C/C=C/c1ccc(C(F)(F)F)cc1)CC2` [Example 162, (E)-N-((2-chloropyridin-4-yl)methyl)-9-(trifluoromethyl)-2-(3-(4-(trifluoromethyl)-phenyl)allyl)-1,2,3,4-tetrahydro-5H-pyrido[4,3-b]indole-5-carboxamide], the minimal effective concentration in the experiment on Haemonchus contortus L3 was more than 100 µM; in the experiment on D. immitis microfilariae it was 10 µM.

As for `N#Cc1ccc2c(c1)c1c(n2C(=O)NCc2ccnc(F)c2)CCN(C/C=C/c2cc(F)ccc2Br)C1` [Example 107, (E)-2-(3-(2-bromo-5-fluorophenyl)allyl)-8-cyano-N-((2-fluoropyridin-4-yl)methyl)-1,2,3,4-tetrahydro-5H-pyrido[4,3-b]indole-5-carboxamide], the values for the minimal effective concentration in the experiment on Haemonchus contortus L3 and with D. immitis microfilariae were 0.5 µM and 1.8 µM, respectively.

On to `N#Cc1cc2c3c(n(C(=O)NCc4ccnc(Cl)c4)c2cc1C(F)(F)F)CCN(C/C=C/c1ccc(Cl)cc1)C3` [Example 171, (E)-2-(3-(4-chlorophenyl)allyl)-N-((2-chloropyridin-4-yl)methyl)-8-cyano-7-(trifluoromethyl)-1,2,3,4-tetrahydro-5H-pyrido[4,3-b]indole-5-carboxamide], for which the minimal effective concentration in the experiment with Haemonchus contortus L3 amounted to 0.5 µM; with D. immitis microfilariae it was 10 µM.

Consider `N#Cc1ccc(/C=C/CN2CCc3c(c4cc(Br)ccc4n3C(=O)NCc3ccnc(F)c3)C2)cc1F` [Example 189, (E)-8-bromo-2-(3-(4-cyano-3-fluorophenyl)allyl)-N-((2-fluoropyridin-4-yl)methyl)-1,2,3,4-tetrahydro-5H-pyrido[4,3-b]indole-5-carboxamide], for which the minimal effective concentration with Haemonchus contortus L3 came to 0.3 µM; in the experiment with D. immitis microfilariae it was 10.4 µM.

For `N#Cc1ccc2c(c1)c1c(n2C(=O)NCc2ccnc(Cl)c2)CCN(C/C=C/c2ccc(Cl)cc2F)C1` [Example 75, (E)-2-(3-(4-chloro-2-fluorophenyl)allyl)-N-((2-chloropyridin-4-yl)methyl)-8-cyano-1,2,3,4-tetrahydro-5H-pyrido[4,3-b]indole-5-carboxamide], the minimal effective concentration in the experiment on Haemonchus contortus L3 was found to be 0.1 µM; with D. immitis microfilariae, 10.2 µM.

`N#Cc1ccc2c(c1)c1c(n2C(=O)NCc2ccnc(F)c2)CCN(C/C=C/c2ccc(Cl)cc2)C1` [Example 121, (E)-2-(3-(4-chlorophenyl)allyl)-8-cyano-N-((2-fluoropyridin-4-yl)methyl)-1,2,3,4-tetrahydro-5H-pyrido[4,3-b]indole-5-carboxamide]: the minimal effective concentration is 0.3 µM in the experiment on Haemonchus contortus L3 and 10 µM with D. immitis microfilariae.

As to `O=C(NCc1ccnc(Cl)c1)n1c2c(c3ccc(C(F)(F)F)cc31)CN(C/C=C/c1ccc(F)cc1)CC2` [Example 160, (E)-N-((2-chloropyridin-4-yl)methyl)-2-(3-(4-fluorophenyl)allyl)-7-(trifluoromethyl)-1,2,3,4-tetrahydro-5H-pyrido[4,3-b]indole-5-carboxamide], the minimal effective concentration came to 1.8 µM in the experiment with Haemonchus contortus L3 and 10 µM in the experiment on D. immitis microfilariae.

In the case of `O=C(NCc1ccnc(Cl)c1)n1c2c(c3ccc(OC(F)(F)F)cc31)CN(C/C=C/c1ccc(Cl)cc1F)CC2` [Example 340, (E)-2-(3-(4-chloro-2-fluorophenyl)allyl)-N-((2-chloropyridin-4-yl)methyl)-7-(trifluoromethoxy)-1,2,3,4-tetrahydro-5H-pyrido[4,3-b]indole-5-carboxamide], the minimal effective concentration was 0.3 µM with Haemonchus contortus L3 and 5.7 µM in the experiment with D. immitis microfilariae.
